Ends that are not written are not given here.
Tested on: HEK293-GLP-2R-Luc cells

In the case of “HGEGTFSSELATILDALAARDFINWLIATKITDKKKKKK-NH2 [glepaglutide]”, the “log2 (TD/Ctrl) CACNB1” value (Qvalue 4.04 × 10^−5) is reported as 1.075, the “log2 (TD/Ctrl) CHAC1” value (Qvalue 4.05 × 10^−4) is reported as 1.141 and the “log2 (TD/Ctrl) PDK4” value (Qvalue 4.05 × 10^−7) is reported as 1.463. The “log2 (TD/Ctrl) GUCY1A1” value (Qvalue 4.19 × 10^−5) was −1.107, the “log2 (TD/Ctrl) SNAP25” value (Qvalue 4.24 × 10^−5) was 1.698 and the “log2 (TD/Ctrl) CALCB” value (Qvalue 4.28 × 10^−58) was 3.658. The “log2 (TD/Ctrl) PDE8B” value (Qvalue 4.35 × 10^−6) was 1.08, the “log2 (TD/Ctrl) FAM86B2” value (Qvalue 4.40 × 10^−6) was 1.144 and the “log2 (TD/Ctrl) CD55” value (Qvalue 4.43 × 10^−29) was 1.554. For the same substance, the “log2 (TD/Ctrl) PDE10A” value (Qvalue 4.45 × 10^−11) was 1.052, the “log2 (TD/Ctrl) IGFBP5” value (Qvalue 4.48 × 10^−29) was −1.803 and the “log2 (TD/Ctrl) PPP1R15A” value (Qvalue 4.52 × 10^−19) was 1.729. The “log2 (TD/Ctrl) FAM131B” value (Qvalue 4.57 × 10^−4) was 2.284, the “log2 (TD/Ctrl) DCLK1” value (Qvalue 4.77 × 10^−6) was 1.118 and the “log2 (TD/Ctrl) ARC” value (Qvalue 4.77 × 10^−21) was 2.548. For the same substance, the “log2 (TD/Ctrl) TRMT11” value (Qvalue 4.83 × 10^−7) was 1.007, the “log2 (TD/Ctrl) BRSK1” value (Qvalue 4.84 × 10^−4) was 1.033 and the “log2 (TD/Ctrl) CXCL8” value (Qvalue 4.89 × 10^−10) was 2.264. For the same substance, the “log2 (TD/Ctrl) MMP10” value (Qvalue 4.91 × 10^−4) was 2.63, the “log2 (TD/Ctrl) NTS” value (Qvalue 4.98 × 10^−8) was 3.901 and the “log2 (TD/Ctrl) INKA2” value (Qvalue 5.19 × 10^−4) was −1.14. For the same substance, the “log2 (TD/Ctrl) RSRC2” value (Qvalue 5.28 × 10^−10) was 1.09, the “log2 (TD/Ctrl) PCDH9” value (Qvalue 5.30 × 10^−8) was −1.158 and the “log2 (TD/Ctrl) NCOA5” value (Qvalue 5.31 × 10^−8) was −1.2433. For the same substance, the “log2 (TD/Ctrl) PROCR” value (Qvalue 5.32 × 10^−8) was 1.201, the “log2 (TD/Ctrl) AVPI1” value (Qvalue 5.33 × 10^−8) was 1.192 and the “log2 (TD/Ctrl) IL12A” value (Qvalue 5.36 × 10^−4) was 1.606. For the same substance, the “log2 (TD/Ctrl) CCN2” value (Qvalue 5.36 × 10^−15) was 2.558, the “log2 (TD/Ctrl) PCSK1” value (Qvalue 5.37 × 10^−34) was 5.002 and the “log2 (TD/Ctrl) HSPB8” value (Qvalue 5.44 × 10^−4) was 1.961. For the same substance, the “log2 (TD/Ctrl) CHGB” value (Qvalue 5.45 × 10^−20) was 3.305, the “log2 (TD/Ctrl) LY6K” value (Qvalue 5.54 × 10^−6) was 2.444 and the “log2 (TD/Ctrl) TNFRSF10D” value (Qvalue 5.55 × 10^−11) was −1.432. For the same substance, the “log2 (TD/Ctrl) RNF122” value (Qvalue 5.63 × 10^−24) was 1.985, the “log2 (TD/Ctrl) PAPPA” value (Qvalue 5.75 × 10^−4) was 1.578 and the “log2 (TD/Ctrl) CTH” value (Qvalue 5.77 × 10^−13) was 1.317. For the same substance, the “log2 (TD/Ctrl) ETV5” value (Qvalue 5.77 × 10^−17) was 1.932, the “log2 (TD/Ctrl) FOSL1” value (Qvalue 5.84 × 10^−23) was 3.193 and the “log2 (TD/Ctrl) UBE2QL1” value (Qvalue 5.89 × 10^−10) was 1.897. For the same substance, the “log2 (TD/Ctrl) PCK1” value (Qvalue 5.99 × 10^−8) was 4.954, the “log2 (TD/Ctrl) SYAP1” value (Qvalue 6.03 × 10^−37) was 1.501 and the “log2 (TD/Ctrl) ADAMTS1” value (Qvalue 6.10 × 10^−16) was 1.32. The “log2 (TD/Ctrl) TSPAN18” value (Qvalue 6.12 × 10^−5) was 1.221, the “log2 (TD/Ctrl) ZNF697” value (Qvalue 6.15 × 10^−17) was 1.651 and the “log2 (TD/Ctrl) NME1-NME2” value (Qvalue 6.18 × 10^−4) was 1.069. The “log2 (TD/Ctrl) TAF1D” value (Qvalue 6.18 × 10^−6) was 1.001, the “log2 (TD/Ctrl) GAB2” value (Qvalue 6.27 × 10^−10) was 1.866 and the “log2 (TD/Ctrl) ZNF718” value (Qvalue 6.33 × 10^−4) was −1.3027. For the same substance, the “log2 (TD/Ctrl) OMA1” value (Qvalue 6.34 × 10^−6) was −1.165, the “log2 (TD/Ctrl) EPHA7” value (Qvalue 6.41 × 10^−18) was −1.443 and the “log2 (TD/Ctrl) NR4A3” value (Qvalue 6.44 × 10^−8) was 1.795. For the same substance, the “log2 (TD/Ctrl) AREG” value (Qvalue 6.48 × 10^−5) was 3.509, the “log2 (TD/Ctrl) ZCCHC12” value (Qvalue 6.60 × 10^−42) was 2.11 and the “log2 (TD/Ctrl) CHMP1B” value (Qvalue 6.69 × 10^−14) was 1.048. For the same substance, the “log2 (TD/Ctrl) KBTBD7” value (Qvalue 6.73 × 10^−6) was −1.122, the “log2 (TD/Ctrl) FAM200C” value (Qvalue 6.74 × 10^−4) was −1.19 and the “log2 (TD/Ctrl) EGR1” value (Qvalue 6.76 × 10^−10) was 2.978. For the same substance, the “log2 (TD/Ctrl) PLAUR” value (Qvalue 6.86 × 10^−10) was 1.559, the “log2 (TD/Ctrl) MAP2K6” value (Qvalue 6.95 × 10^−9) was −1.348 and the “log2 (TD/Ctrl) NR4A2” value (Qvalue 7.07 × 10^−23) was 2.428. For the same substance, the “log2 (TD/Ctrl) P2RY11” value (Qvalue 7.12 × 10^−9) was −9.7959, the “log2 (TD/Ctrl) CARMIL2” value (Qvalue 7.13 × 10^−10) was 1.753 and the “log2 (TD/Ctrl) COL7A1” value (Qvalue 7.17 × 10^−4) was −1.612. The “log2 (TD/Ctrl) KRT17” value (Qvalue 7.46 × 10^−4) was 3.685, the “log2 (TD/Ctrl) PTRH1” value (Qvalue 7.65 × 10^−4) was 1.322 and the “log2 (TD/Ctrl) CBARP” value (Qvalue 7.76 × 10^−5) was 1.225. The “log2 (TD/Ctrl) ZBTB12” value (Qvalue 7.78 × 10^−9) was −1.6, the “log2 (TD/Ctrl) CGA” value (Qvalue 7.84 × 10^−76) was 7.042 and the “log2 (TD/Ctrl) SERPINE2” value (Qvalue 7.93 × 10^−10) was 1.136. The “log2 (TD/Ctrl) GABARAPL1” value (Qvalue 8.03 × 10^−15) was 1.405, the “log2 (TD/Ctrl) COL1A1” value (Qvalue 8.07 × 10^−20) was 1.91 and the “log2 (TD/Ctrl) NDRG4” value (Qvalue 8.22 × 10^−4) was 1.306. For the same substance, the “log2 (TD/Ctrl) QRICH2” value (Qvalue 8.25 × 10^−6) was −1.253, the “log2 (TD/Ctrl) CD24” value (Qvalue 8.27 × 10^−27) was 2.289 and the “log2 (TD/Ctrl) ZNF331” value (Qvalue 8.43 × 10^−12) was 1.041. The “log2 (TD/Ctrl) FZD4” value (Qvalue 8.54 × 10^−5) was −1.071, the “log2 (TD/Ctrl) RGS6” value (Qvalue 8.61 × 10^−5) was 4.489 and the “log2 (TD/Ctrl) NR4A1” value (Qvalue 8.67 × 10^−7) was 4.426. The “log2 (TD/Ctrl) BMPER” value (Qvalue 8.87 × 10^−4) was 2.13, the “log2 (TD/Ctrl) IER2” value (Qvalue 9.14 × 10^−13) was 1.167 and the “log2 (TD/Ctrl) INHBA” value (Qvalue 9.22 × 10^−49) was 4.678. The “log2 (TD/Ctrl) SERPINB9” value (Qvalue 9.32 × 10^−11) was 1.4, the “log2 (TD/Ctrl) GADD45B” value (Qvalue 9.33 × 10^−42) was 1.995 and the “log2 (TD/Ctrl) FAM111B” value (Qvalue 9.51 × 10^−4) was −1.222. The “log2 (TD/Ctrl) FHL2” value (Qvalue 9.62 × 10^−6) was 1.082, the “log2 (TD/Ctrl) NFKB2” value (Qvalue 9.77 × 10^−25) was 1.551 and the “log2 (TD/Ctrl) EDA2R” value (Qvalue 9.85 × 10^−6) was −1.374. For the same substance, the “log2 (TD/Ctrl) EGR3” value (Qvalue 9.86 × 10^−8) was 2.228, the “log2 (TD/Ctrl) LAMB3” value (Qvalue 9.88 × 10^−5) was 1.323 and the “log2 (TD/Ctrl) SAP30L” value (Qvalue 9.88 × 10^−7) was −1.0123. The “log2 (TD/Ctrl) SCARA5” value (Qvalue […] 10^−12) was 3.284, the “log2 (TD/Ctrl) GCNA” value (Qvalue […] 10^−17) was 1.602 and the “log2 (TD/Ctrl) TAC1” value (Qvalue […] 10^−76) was 4.689.
